Laboratory results taken from patent publication US20240301319A1, “PERFUMING COMPOSITIONS” (FIRMNICH SA, priority 2017, published 2024).

Experiments:
[1] = Volatility of perfuming compounds (Tables 4 to 10), with top/middle/bottom note type; format: physicochemical
Experimental: In some aspects, the first perfume accord comprises perfuming compounds having a volatility ranging from 70,000 to 100 μg/l in air. In some aspects, perfuming compounds having a volatility ranging from 70,000 to 100 μg/l in air are referred to as “top notes”.
In some aspects, the second perfume accord comprises perfuming compounds having a volatility ranging from 99 to 50 μg/l in air. In some aspects, perfuming compounds having a volatility ranging from 99 to 50 μg/l in air are referred to as “middle notes”.
In some aspects, the third perfume accord comprises perfuming compounds having a volatility ranging from 49 to 0.1 μg/l in air. In some aspects, perfuming compounds having a volatility ranging from 49 to 0.1 μg/l in air are referred to as “bottom notes”.
Tables 4 to 10 describe top, middle and bottom note perfuming compounds for watery, green, fruity, citrus, sweet, gourmand and woody notes respectively.

[2] = Odor threshold and odor value of perfuming compounds (Tables 4 to 10)
[3] = Table 6, perfuming compounds having a fruity note
[4] = Table 6, perfuming compounds having a fruity note, note type by volatility
[5] = note type (Top/Middle/Bottom) by volatility, perfuming compounds having a green note
[6] = perfuming compounds having a green note
[7] = Table 8, perfuming compounds having a sweet note
[8] = Table 8, perfuming compounds having a sweet note, note type by volatility
[9] = Table 9, perfuming compounds having a gourmand note, note type by volatility
[10] = Table 4, watery note, top, middle or bottom note
[11] = Table 4, watery note, equals volatility divided by odor threshold

Compound | Volatility [1, 3] | Type [1, 4] | Type [1, 5] | Volatility (μg/l air) [1, 6] | Odor Threshold (μg/l air) [2, 6] | Volatility [1, 7] | Type [1, 8] | Odor Threshold [2, 7] | Odor Value [2, 7] | further results
CCCC(=O)OCC [ETHYL BUTANOATE] | 142519.74 μg/l air | TOP (perfuming compounds having a volatility ranging from 70,000 to 100 μg/l in air are referred to as “top notes”) | Top | 142519.74 μg/l air | 3.68E−04 μg/l air | – | – | – | – | –
C/C=C/C(=O)C1C(C)=CCCC1(C)C (racemic) | – | TOP (perfuming compounds having a volatility ranging from 70,000 to 100 μg/l in air are referred to as “top notes”) | Top | 110.53 μg/l air | 1.04E−04 μg/l air | 110.53 μg/l air | Top | 1.04E−04 μg/l air | 1.06E+06 | Type ([1]; Table 10, perfuming compounds having a woody note, note type by volatility): Top; Volatility ([1]; Table 10, woody note): 110.53 μg/l air; Odor Threshold [2, 3]: 1.04E−04 μg/l air; Odor Threshold ([2]; Table 10, woody note): 1.04E−04 μg/l air
O=C1CCCCCCCCCCC(=O)OCCO1 [1,4-dioxacyclohexadecane-5,16-dione] | – | – | – | – | – | 0.46 μg/l air | Bottom | 7.05E−04 μg/l air | 6.55E+02 | –
CCCCCCOC(=O)C(C)C [hexyl 2-methylpropanoate] | 1661.18 μg/l air | TOP (perfuming compounds having a volatility ranging from 70,000 to 100 μg/l in air are referred to as “top notes”) | Top | 1661.18 μg/l air | 7.15E−01 μg/l air | – | – | – | – | –
COc1cc(C=O)ccc1OC(=O)C(C)C | 1.01 μg/l air | Bottom | – | – | – | 1.01 μg/l air | Bottom | 7.33E−05 μg/l air | 1.38E+04 | Volatility ([1]; Table 9, gourmand note): 1.01 μg/l air; Type [1, 9]: Bottom; Odor Threshold [2, 3]: 7.33E−05 μg/l air; Odor Value [2, 3]: 1.38E+04; Odor Threshold ([2]; Table 9, gourmand note): 7.33E−05 μg/l air
(−)-(1S)-2,6,6-TRIMETHYL-BICYCLO[3.1.1]HEPT-2-ENE | – | – | Top | 33722.60 μg/l air | 1.02E−01 μg/l air | – | – | – | – | –
CCC(C)(O)CCCC(C)C (racemic) | – | – | Top | 421.15 μg/l air | 3.45E−03 μg/l air | – | – | – | – | –
CC/C=C\CCOC(=O)C(C)C [(Z)-3-HEXENYL ISOBUTYRATE] | 1073.97 μg/l air | TOP (perfuming compounds having a volatility ranging from 70,000 to 100 μg/l in air are referred to as “top notes”) | Top | 1073.97 μg/l air | 4.54E−02 μg/l air | – | – | – | – | –
C=CC(C)(CCC=C(C)C)OC(C)=O (racemic) [(+−)-1,5-DIMETHYL-1-VINYL-4-HEXENYL ACETATE] | – | TOP (perfuming compounds having a volatility ranging from 70,000 to 100 μg/l in air are referred to as “top notes”) | Top | 339.21 μg/l air | 7.40E−02 μg/l air | – | – | – | – | Type ([1]; Table 7, citrus note, top, middle or bottom note): Top; Odor Threshold (μg/l air) ([2]; Table 7, citrus note): 7.40E−02 μg/l air
CC(C)=CCCC(C)C=O (racemic) | 1889.68 μg/l air | TOP (perfuming compounds having a volatility ranging from 70,000 to 100 μg/l in air are referred to as “top notes”) | – | – | – | – | – | – | – | Volatility (μg/l air) ([1]; Table 4, watery note): 1889.68 μg/l air; Type [1, 10]: TOP (perfuming compounds having a volatility ranging from 70,000 to 100 μg/l in air are referred to as “top notes”); Odor Threshold (μg/l air) ([2]; Table 4, watery note): 2.11E−04 μg/l air; Odor Value [2, 11]: 8.96E+06
CC1=CC[C@H](C(C)CC2CCCC2=O)CC1 (some centres unmarked) | 2.05 μg/l air | Bottom | – | – | – | 2.05 μg/l air | Bottom | 1.66E−04 μg/l air | 1.24E+04 | Volatility ([1]; Table 9, gourmand note): 2.05 μg/l air; Type [1, 9]: Bottom; Odor Threshold [2, 3]: 1.66E−04 μg/l air; Odor Value [2, 3]: 1.24E+04; Odor Threshold ([2]; Table 9, gourmand note): 1.66E−04 μg/l air
CC(=O)OC/C=C(/C)CCC=C(C)C [(2Z)-3,7-dimethyl-2,6-octadien-1-yl acetate] | 123.21 μg/l air | TOP (perfuming compounds having a volatility ranging from 70,000 to 100 μg/l in air are referred to as “top notes”) | – | – | – | – | – | – | – | Volatility (μg/l air) ([1]; Table 4, watery note): 123.21 μg/l air; Type [1, 10]: TOP (perfuming compounds having a volatility ranging from 70,000 to 100 μg/l in air are referred to as “top notes”); Odor Threshold (μg/l air) ([2]; Table 4, watery note): 6.02E−02 μg/l air; Odor Value [2, 11]: 2.05E+03; Odor Threshold [2, 3]: 6.02E−02 μg/l air; Odor Value [2, 3]: 2.05E+03
CCCCCCCCCCCC#N [DODECANENITRILE] | – | – | – | – | – | – | – | – | – | Volatility (μg/l air) ([1]; Table 4, watery note): 56.74 μg/l air; Type [1, 10]: middle (perfuming compounds having a volatility ranging from 99 to 50 μg/l in air are referred to as “middle notes”); Odor Threshold (μg/l air) ([2]; Table 4, watery note): 3.20E−06 μg/l air; Odor Value [2, 11]: 1.77E+07
COC(=O)Cc1ccccc1 [METHYL PHENYLACETATE] | 555.30 μg/l air | TOP (perfuming compounds having a volatility ranging from 70,000 to 100 μg/l in air are referred to as “top notes”) | – | – | – | 555.30 μg/l air | Top | 3.21E−04 μg/l air | 1.73E+06 | Volatility ([1]; Table 9, gourmand note): 555.30 μg/l air; Type [1, 9]: Top; Odor Threshold ([2]; Table 9, gourmand note): 3.21E−04 μg/l air
